Values joined by “and” are separate entries in the source; they are usually repeats but may differ in a detail not shown here. Identical values can stand only once. Counter-ions that a name gives are not always drawn.
Assays:
CDK5/p25 = CDK5/p25 (Homo sapiens, UniProt Q00535); test: ADP-Glo protein kinase assay, CDK5/p25; type: biochemical; conditions: 10 µM ATP, normalized to DMSO control, mean n = 2
Experimental: (§1) Kinase enzymatic activities were assayed in 384-well plates using the ADP-Glo^TM assay kit, following the recommendations of the manufacturer (Promega, Madison, WI). Controls were performed in appropriate dilutions of dimethyl sulfoxide (DMSO). Kinase activities, measured in the presence of 10 µM ATP, are expressed as percentage of maximal activity, i.e., measured in the absence of inhibitor. In order to determine the half-maximal inhibitory concentration (IC50), the assays were performed in duplicate in the absence or presence of increasing doses of the tested compounds. Data were analyzed using GraphPad PRISM (GraphPad Software, San Diego, CA, USA) software to fit a sigmoïdal curve that allowed determination of the IC50 values. The experimental conditions used for measuring kinase activities are comprehensively described in Ibrahim et al.. Human recombinant ABL1 mutant (T315I) was purchased from Promega (Catalog # V5320) and tested following the recommendations of the manufacturer (Promega, Madison, WI, USA).

CDK9/CyclinT = CDK9/CyclinT (Homo sapiens, UniProt P50750); test: ADP-Glo protein kinase assay, CDK9/CyclinT; type: biochemical; conditions: 10 µM ATP, normalized to DMSO control, mean n = 2
Chain of CDK9/CyclinT (P50750 whole entry): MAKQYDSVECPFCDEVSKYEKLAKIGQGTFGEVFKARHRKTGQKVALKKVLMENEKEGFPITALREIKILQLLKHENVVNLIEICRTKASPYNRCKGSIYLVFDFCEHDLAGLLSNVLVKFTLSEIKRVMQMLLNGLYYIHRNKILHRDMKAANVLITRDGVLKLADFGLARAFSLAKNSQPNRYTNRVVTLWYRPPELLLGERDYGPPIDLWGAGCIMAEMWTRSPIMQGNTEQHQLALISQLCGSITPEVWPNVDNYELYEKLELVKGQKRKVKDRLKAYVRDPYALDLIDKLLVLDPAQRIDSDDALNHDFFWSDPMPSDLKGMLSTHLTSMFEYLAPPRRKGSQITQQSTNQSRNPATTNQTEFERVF
Chain of CDK9/CyclinT (O60563 whole entry partner): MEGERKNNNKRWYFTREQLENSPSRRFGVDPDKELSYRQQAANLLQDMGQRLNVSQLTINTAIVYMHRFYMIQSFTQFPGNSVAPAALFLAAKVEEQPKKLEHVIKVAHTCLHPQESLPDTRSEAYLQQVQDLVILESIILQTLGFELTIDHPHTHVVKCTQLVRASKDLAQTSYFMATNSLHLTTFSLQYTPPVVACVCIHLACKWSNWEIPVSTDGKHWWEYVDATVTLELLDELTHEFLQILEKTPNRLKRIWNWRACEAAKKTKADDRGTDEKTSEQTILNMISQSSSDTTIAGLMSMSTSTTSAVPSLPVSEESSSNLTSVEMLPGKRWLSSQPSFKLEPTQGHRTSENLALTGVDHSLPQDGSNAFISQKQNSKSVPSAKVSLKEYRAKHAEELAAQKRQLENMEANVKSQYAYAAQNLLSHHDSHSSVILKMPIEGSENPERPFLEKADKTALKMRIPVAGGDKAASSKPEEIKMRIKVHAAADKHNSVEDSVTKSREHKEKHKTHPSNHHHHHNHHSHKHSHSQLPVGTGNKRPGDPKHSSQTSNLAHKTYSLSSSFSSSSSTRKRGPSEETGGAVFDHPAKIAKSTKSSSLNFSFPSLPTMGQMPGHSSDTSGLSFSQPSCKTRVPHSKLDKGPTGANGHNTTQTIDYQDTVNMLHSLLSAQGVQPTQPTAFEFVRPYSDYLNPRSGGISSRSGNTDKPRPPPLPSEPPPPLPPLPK
Experimental: as §1

Haspin = target: T1, Haspin (Homo sapiens, UniProt Q8TF76); test: ADP-Glo protein kinase assay, Haspin; type: biochemical; conditions: 10 µM ATP, normalized to DMSO control, mean n = 2
T1 sequence (Q8TF76 1-798): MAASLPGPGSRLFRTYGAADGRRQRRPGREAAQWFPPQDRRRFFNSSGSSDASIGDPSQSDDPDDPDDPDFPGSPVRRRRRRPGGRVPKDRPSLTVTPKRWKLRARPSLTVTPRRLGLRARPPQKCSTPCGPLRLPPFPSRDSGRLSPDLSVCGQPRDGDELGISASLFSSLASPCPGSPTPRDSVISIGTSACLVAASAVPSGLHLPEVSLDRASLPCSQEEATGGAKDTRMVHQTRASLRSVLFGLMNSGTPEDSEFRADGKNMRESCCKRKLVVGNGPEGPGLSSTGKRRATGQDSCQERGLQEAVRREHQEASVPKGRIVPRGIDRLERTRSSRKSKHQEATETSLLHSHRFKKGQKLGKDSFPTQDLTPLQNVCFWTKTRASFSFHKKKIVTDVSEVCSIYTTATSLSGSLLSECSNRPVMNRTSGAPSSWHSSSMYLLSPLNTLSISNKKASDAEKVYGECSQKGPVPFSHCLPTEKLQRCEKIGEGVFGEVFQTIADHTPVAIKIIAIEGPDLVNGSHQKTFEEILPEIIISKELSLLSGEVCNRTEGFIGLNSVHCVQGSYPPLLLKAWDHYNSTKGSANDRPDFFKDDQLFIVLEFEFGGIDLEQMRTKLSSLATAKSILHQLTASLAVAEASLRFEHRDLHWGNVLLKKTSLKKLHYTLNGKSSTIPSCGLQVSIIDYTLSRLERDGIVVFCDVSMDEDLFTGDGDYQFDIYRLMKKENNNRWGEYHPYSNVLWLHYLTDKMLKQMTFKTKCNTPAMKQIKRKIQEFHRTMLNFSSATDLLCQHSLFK
Experimental: as §1

Pim1 = Pim1 (Homo sapiens, UniProt P11309); test: ADP-Glo protein kinase assay, Pim1; type: biochemical; conditions: for % of kinase activity that remained, Pim1: 10 µM ATP, normalized to DMSO control, mean n = 2
Chain of Pim1 (P11309 whole entry): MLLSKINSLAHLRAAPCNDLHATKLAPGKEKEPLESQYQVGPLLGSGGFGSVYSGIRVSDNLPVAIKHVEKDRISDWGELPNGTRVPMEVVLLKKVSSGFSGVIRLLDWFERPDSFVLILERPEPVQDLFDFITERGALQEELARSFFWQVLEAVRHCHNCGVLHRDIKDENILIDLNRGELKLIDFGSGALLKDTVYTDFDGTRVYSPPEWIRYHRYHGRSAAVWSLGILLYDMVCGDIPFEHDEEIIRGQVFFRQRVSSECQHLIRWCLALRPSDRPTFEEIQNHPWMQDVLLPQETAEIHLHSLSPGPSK
Experimental: as §1

GSK-3β = GSK-3β (Homo sapiens, UniProt P49841); test: ADP-Glo protein kinase assay, GSK-3β; type: biochemical; conditions: for % of kinase activity that remained, GSK-3β: 10 µM ATP, normalized to DMSO control, mean n = 2
Chain of GSK-3β (P49841 whole entry): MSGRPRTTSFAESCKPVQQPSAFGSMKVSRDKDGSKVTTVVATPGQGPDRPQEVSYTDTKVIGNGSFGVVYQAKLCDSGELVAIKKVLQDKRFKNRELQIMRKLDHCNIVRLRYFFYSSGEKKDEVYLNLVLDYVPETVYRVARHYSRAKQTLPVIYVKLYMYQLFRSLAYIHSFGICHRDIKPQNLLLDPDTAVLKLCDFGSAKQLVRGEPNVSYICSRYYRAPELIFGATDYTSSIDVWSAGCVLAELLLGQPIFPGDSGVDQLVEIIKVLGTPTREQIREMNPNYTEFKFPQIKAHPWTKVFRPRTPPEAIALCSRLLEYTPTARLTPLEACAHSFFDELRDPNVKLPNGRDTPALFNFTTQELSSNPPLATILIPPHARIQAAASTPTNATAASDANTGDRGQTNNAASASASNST
Experimental: as §1

CK1ε = CK1ε (Homo sapiens, UniProt P49674); test: ADP-Glo protein kinase assay, CK1ε; type: biochemical; conditions: for % of kinase activity that remained, CK1ε: 10 µM ATP, normalized to DMSO control, mean n = 2
Chain of CK1ε (P49674 whole entry): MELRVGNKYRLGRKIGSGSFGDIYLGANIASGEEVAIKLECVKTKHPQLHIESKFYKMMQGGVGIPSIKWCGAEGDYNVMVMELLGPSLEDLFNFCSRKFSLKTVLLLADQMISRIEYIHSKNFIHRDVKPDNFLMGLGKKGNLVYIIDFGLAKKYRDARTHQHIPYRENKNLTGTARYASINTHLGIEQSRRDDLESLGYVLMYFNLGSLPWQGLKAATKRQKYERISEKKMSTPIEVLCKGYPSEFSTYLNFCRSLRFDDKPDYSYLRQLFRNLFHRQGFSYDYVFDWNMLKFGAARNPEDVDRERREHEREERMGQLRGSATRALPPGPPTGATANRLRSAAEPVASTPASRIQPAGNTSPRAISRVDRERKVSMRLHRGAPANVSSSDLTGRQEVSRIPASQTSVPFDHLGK
Experimental: as §1

JAK3 = target: T2, JAK3 (Homo sapiens, UniProt P52333); test: ADP-Glo protein kinase assay, JAK3; type: biochemical; conditions: for % of kinase activity that remained, JAK3: 10 µM ATP, normalized to DMSO control, mean n = 2
T2 sequence (P52333 1-1124): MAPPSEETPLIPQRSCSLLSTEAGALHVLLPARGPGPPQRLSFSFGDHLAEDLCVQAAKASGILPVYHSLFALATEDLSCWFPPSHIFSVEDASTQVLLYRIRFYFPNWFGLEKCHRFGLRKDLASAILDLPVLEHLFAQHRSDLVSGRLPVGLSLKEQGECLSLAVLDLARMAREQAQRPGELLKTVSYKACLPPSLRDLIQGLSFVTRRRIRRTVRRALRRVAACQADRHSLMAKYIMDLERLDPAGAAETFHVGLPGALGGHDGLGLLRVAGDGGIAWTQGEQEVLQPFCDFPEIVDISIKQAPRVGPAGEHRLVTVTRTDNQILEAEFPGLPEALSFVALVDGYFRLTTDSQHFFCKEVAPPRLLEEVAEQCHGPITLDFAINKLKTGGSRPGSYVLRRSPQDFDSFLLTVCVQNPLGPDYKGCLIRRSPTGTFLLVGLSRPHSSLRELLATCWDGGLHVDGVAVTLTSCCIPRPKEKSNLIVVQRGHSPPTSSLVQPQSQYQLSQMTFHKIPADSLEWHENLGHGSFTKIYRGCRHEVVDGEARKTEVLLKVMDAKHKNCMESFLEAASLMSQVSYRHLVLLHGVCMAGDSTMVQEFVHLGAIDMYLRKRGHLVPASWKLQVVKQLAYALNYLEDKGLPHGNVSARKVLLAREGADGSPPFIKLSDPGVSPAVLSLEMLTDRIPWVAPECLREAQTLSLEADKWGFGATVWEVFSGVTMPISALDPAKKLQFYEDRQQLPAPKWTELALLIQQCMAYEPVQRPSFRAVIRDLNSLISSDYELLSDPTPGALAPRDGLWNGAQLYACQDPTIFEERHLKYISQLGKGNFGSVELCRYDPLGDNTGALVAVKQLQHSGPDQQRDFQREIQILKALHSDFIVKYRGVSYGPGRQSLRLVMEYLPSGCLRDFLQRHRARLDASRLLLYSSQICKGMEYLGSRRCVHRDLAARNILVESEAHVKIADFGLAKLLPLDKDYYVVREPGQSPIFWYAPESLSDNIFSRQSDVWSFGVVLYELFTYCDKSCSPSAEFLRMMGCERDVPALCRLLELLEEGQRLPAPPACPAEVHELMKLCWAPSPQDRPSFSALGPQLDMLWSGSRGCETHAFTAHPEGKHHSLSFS
Experimental: as §1

ABL1 = ABL1 (Homo sapiens, UniProt P00519); test: ADP-Glo protein kinase assay, ABL1; type: biochemical; conditions: for % of kinase activity that remained, ABL1: 10 µM ATP, normalized to DMSO control, mean n = 2
Experimental: as §1, with “Kinase activities, measured in the presence of 10 µM ATP, are expressed as percentage of maximal activity, i.e., measured in the absence of inhibitor.” left out

GSK-3α = GSK-3α (Homo sapiens, UniProt P49840); test: ADP-Glo protein kinase assay, GSK-3α; type: biochemical
Chain of GSK-3α (P49840 whole entry): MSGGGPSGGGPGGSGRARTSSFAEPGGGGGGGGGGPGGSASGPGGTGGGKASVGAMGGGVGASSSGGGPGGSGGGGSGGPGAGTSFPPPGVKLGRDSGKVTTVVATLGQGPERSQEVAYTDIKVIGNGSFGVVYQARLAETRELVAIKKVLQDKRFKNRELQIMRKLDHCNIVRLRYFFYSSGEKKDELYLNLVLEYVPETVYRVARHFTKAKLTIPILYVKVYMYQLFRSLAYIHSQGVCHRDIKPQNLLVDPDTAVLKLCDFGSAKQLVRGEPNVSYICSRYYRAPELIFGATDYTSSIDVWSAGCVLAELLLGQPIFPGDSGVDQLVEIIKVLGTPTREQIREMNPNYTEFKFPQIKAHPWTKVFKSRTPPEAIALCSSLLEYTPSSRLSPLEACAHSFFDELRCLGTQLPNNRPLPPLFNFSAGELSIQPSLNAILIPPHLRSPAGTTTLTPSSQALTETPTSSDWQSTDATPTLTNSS
Experimental: as §1

VEGFR2 = VEGFR2 (Homo sapiens, UniProt P35968); test: ADP-Glo protein kinase assay, VEGFR2; type: biochemical
Chain of VEGFR2 (P35968 20-1356): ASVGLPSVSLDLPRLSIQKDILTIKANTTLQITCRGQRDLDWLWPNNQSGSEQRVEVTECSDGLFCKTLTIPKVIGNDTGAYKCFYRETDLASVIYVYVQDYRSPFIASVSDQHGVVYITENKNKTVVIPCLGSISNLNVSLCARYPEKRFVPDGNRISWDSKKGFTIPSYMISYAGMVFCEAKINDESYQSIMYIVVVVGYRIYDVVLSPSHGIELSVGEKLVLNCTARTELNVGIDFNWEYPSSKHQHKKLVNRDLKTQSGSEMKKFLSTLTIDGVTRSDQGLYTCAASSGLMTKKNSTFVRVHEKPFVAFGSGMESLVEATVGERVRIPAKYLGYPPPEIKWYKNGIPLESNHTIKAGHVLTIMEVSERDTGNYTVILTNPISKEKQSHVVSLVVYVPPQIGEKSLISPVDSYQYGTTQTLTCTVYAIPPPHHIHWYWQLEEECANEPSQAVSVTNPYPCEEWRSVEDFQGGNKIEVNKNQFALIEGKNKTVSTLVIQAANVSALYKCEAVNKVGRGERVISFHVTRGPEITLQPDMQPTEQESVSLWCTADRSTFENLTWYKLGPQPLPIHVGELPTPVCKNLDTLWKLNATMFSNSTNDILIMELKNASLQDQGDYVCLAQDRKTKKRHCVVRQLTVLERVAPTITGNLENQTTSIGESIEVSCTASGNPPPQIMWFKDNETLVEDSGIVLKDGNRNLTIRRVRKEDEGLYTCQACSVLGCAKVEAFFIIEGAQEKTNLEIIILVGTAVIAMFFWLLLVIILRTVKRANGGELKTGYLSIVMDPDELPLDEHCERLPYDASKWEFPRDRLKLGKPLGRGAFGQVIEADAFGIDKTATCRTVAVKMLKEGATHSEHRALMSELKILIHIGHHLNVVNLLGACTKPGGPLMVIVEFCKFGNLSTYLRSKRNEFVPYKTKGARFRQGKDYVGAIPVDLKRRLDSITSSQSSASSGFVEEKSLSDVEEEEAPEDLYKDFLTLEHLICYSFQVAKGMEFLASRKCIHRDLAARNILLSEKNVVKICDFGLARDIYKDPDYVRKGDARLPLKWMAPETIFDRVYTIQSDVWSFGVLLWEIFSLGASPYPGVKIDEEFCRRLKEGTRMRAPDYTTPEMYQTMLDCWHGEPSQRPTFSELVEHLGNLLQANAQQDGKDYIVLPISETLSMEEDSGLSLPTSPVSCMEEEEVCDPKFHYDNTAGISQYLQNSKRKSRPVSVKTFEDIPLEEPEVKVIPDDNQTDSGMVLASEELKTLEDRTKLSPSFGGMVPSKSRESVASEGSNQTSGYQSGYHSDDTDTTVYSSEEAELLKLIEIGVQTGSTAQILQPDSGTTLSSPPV
Experimental: as §1

NEK6 = NEK6 (Homo sapiens, UniProt Q9HC98); test: ADP-Glo protein kinase assay, NEK6; type: biochemical
Chain of NEK6 (Q9HC98 whole entry): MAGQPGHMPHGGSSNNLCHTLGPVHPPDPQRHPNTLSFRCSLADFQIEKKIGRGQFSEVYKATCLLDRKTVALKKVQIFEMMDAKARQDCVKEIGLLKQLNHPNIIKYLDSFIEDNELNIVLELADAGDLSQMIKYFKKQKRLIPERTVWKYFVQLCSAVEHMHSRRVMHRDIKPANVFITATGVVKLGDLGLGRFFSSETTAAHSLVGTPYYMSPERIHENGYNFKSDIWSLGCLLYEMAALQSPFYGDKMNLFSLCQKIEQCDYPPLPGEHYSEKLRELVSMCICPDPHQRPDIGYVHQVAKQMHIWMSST
Experimental: as §1

[1] = system: K562S (doxorubicin-sensitive K562) chronic myelogenous leukemia cells; test: MTS cell viability assay, K562S cells; type: cell-based, human; conditions: for IC50: Homo sapiens, K562, 48 h exposure, n = 3
Experimental: K562 (ATCC®, CCL-243, described here as K562S to indicate sensitivity to doxorubicin), a human chronic myelogenous leukemia cell line, was obtained from American Type Culture Collection (Manassas, VA, USA). A doxorubicin-resistant cell line (K562R, also known as K562/Adr) was kindly provided by the IRSET institute (Research Institute for Environmental and Occupational Health, INSERM, University of Rennes 1, France). The cells were maintained at 37 °C and 5% CO2 in Gibco™ 1640 Roswell Park Memorial Institute (RPMI-1640) medium containing 10% fetal bovine serum (FBS) (Life Technologies^TM, Thermo Fisher Scientific, Waltham, MA, USA).
(§2) Cell viability was evaluated with the MTS (3-(4,5-dimethylthiazol-2-yl)-5-(3-carboxymethoxyphenyl)-2-(4-sulfophenyl)-2H-tetrazolium) reduction kit, (CellTiter 96 Aqueous Non-Radioactive Cell Proliferation Assay, Promega, Fitchburg, WI, USA), according to the instructions of the manufacturer. […] Further details on experimental conditions used can be found in Delehouzé et al. 2017 [47].

[2] = system: K562R (doxorubicin-resistant K562) chronic myelogenous leukemia cells; test: MTS cell viability assay, K562R cells; type: cell-based; conditions: Homo sapiens, K-562R, 48 h exposure, n = 3
[3] = system: human peripheral blood lymphocytes (hPBLs); test: MTS cell viability assay, human peripheral blood lymphocytes; type: cell-based; conditions: betulin ≤ 100 µM, 48 h, four healthy donors
Experimental: Peripheral blood mononuclear cells (PBMCs) were isolated by Ficoll gradient centrifugation from blood buffy coats of healthy donors, provided by the Etablissement Français du Sang (EFS). The research protocol was conducted under French legal guidelines. After separation of monocytes by 1 h adhesion step, non-adherent PBMCs (peripheral blood lymphocytes, PBL) were harvested. PBL were cultured in RPMI 1640 medium (Gibco, Life technologies, Carlsbad, CA, USA) supplemented with 10% decomplemented fetal bovine serum (CVFSVF00–01, Eurobio), penicillin (100 IU/mL), and streptomycin (100 μg/mL) (15140–122, Gibco). All cells were cultured at 37 °C with 5% CO2.
as §2

[4] = system: phospho-ERK1/2 (Thr202/Tyr204); test: Immunoblot of phospho-ERK1/2 in K562S cells; type: cell-based, human; conditions: 6 h treatment, ImageJ band quantification
Experimental: The concentration of DMSO in the culture medium was 1%. Cell lysates were prepared by sonication of the cells in homogenization buffer with 0.5% of nonidet P-40 non-ionic detergent (NP-40) as described previously. SDS-PAGE and immunoblotting were performed following standard procedures. Anti-α-tubulin antibody (clone B512, T5168, 1:5000) was purchased from Sigma Aldrich (St. Louis, MO, USA). The anti-phospho-p44/42 MAPK (#28733–1-AP, 1:2000) was purchased from Proteintech® (Rosemont, IL, USA). This rabbit polyclonal antibody detects p44 and p42 MAPK when doubly phosphorylated (at Thr202 and Tyr204 of p44 and at Thr185 and Tyr187 of p42 MAPK).

ABL1 mutant (T315I) = ABL1 mutant (T315I) (Homo sapiens, UniProt P00519, T315I); conditions: inhibitor at 1 µM; 10 µM ATP; compared with wild type ABL1
Experimental: Effect of the T315I ABL1 kinase domain mutation on the inhibition by betulin. We selected 1 µM
We measured inhibition of mutant and WT ABL1 kinase activities by betulin and by
imatinib, using the ADP-Glo luminescent assay. ATP concentration used in the kinase assays was 10 µM.
Data are mean (N=3, n=3) ± SEM expressed as % of residual kinase activity, normalized to the DMSO control.

[5] = cited from earlier work
[6] = ref ChemSpider database, Royal Society of Chemistry; cited from earlier work
[7] = betulin purified from Acacia auriculiformis at 1 µg/mL
[8] = betulin purified from Acacia auriculiformis at 10 µg/mL

Chain of CDK5/p25 (Q00535 whole entry): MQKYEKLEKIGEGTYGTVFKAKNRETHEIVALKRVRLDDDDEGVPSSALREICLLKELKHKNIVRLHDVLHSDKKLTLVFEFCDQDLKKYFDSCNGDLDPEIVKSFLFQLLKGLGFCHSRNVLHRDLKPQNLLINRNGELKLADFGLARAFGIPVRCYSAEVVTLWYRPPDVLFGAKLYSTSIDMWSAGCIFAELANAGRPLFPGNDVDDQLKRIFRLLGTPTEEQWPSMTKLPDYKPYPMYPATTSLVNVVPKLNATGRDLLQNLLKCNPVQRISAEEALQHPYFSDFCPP
Chain of CDK5/p25 (Q15078 99-307 partner limits assumed): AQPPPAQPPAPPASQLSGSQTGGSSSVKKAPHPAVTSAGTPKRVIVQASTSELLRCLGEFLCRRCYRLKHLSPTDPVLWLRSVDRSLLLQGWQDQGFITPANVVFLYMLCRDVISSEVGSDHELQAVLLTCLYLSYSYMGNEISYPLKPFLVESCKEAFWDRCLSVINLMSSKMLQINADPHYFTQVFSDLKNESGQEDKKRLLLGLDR

With `C=C(C)[C@@H]1CC[C@]2(CO)CC[C@]3(C)[C@H](CC[C@@H]4[C@@]5(C)CC[C@H](O)C(C)(C)[C@@H]5CC[C@]43C)[C@@H]12` [Betulin, 3-lup-20(29)-ene-3β,28-diol] the “% of kinase activity that remained, CDK5/p25” value (CDK5/p25; [7]) was 94%, the “% of kinase activity that remained, CDK5/p25” value (CDK5/p25; [8]) was 99% and the “% of kinase activity that remained, CDK9/CyclinT” value (CDK9/CyclinT; [7]) was 88%. For the same compound, the “% of kinase activity that remained, CDK9/CyclinT” value (CDK9/CyclinT; [8]) was 60%, the “% of kinase activity that remained, Haspin” value (Haspin; [7]) was 72% and the “% of kinase activity that remained, Haspin” value (Haspin; [8]) was 91%. The “% of kinase activity that remained, Pim1” value (Pim1; betulin purified from Acacia auriculiformis at 1 µg/mL, ≥100 = no detectable inhibition) was no less than 100%, the “% of kinase activity that remained, Pim1” value (Pim1; [8]) was 90% and the inhibition at 10 µg/mL (Pim1; read-out: inhibition of kinase activity, Pim1) was 10%. The IC50 (GSK-3β) was 1060 nM, the “% of kinase activity that remained, GSK-3β” value (GSK-3β; [7]) was 38% and the “% of kinase activity that remained, GSK-3β” value (GSK-3β; [8]) was 30%. For the same compound, the IC50 (CK1ε) was 2110 nM, the “% of kinase activity that remained, CK1ε” value (CK1ε; [7]) was 53% and the “% of kinase activity that remained, CK1ε” value (CK1ε; [8]) was 48%. For the same compound, the IC50 (JAK3) was 1080 nM, the “% of kinase activity that remained, JAK3” value (JAK3; [7]) was 28% and the “% of kinase activity that remained, JAK3” value (JAK3; [8]) was 25%. For the same compound, the IC50 (ABL1) was 930 nM, the “inhibition of the ABL1 activity in ATP competition assay” value (ABL1; 10 µM betulin, 100 µM ATP compared with 10 µM ATP) was “significantly decreased” and the “% of kinase activity that remained, ABL1” value (ABL1; [7]) was 36%. The “% of kinase activity that remained, ABL1” value (ABL1; [8]) was 21%, the inhibition at 10 µg/mL (ABL1; read-out: inhibition of kinase activity, ABL1) was 79% and the IC50 (GSK-3α) was 720 nM. For the same compound, the IC50 (VEGFR2) was 2450 nM, the IC50 (NEK6) was 3020 nM and the IC50 [1] was 16500 nM. The “effects on K562S cell viability when cells co-treated with z-VAD-fmk” value ([1]; betulin 1-50 µM with 20 µM z-VAD-fmk (pan-inhibitor of caspases), 48 h) was “not significantly altered”, the IC50 [2] was 13500 nM and the “viability of hPBLs” value [3] was “did not induce a significant decrease”. The “%pERK/Tubulin” value ([4]; 50 µM) was 71.3%, the “%pERK/Tubulin” value ([4]; 100 µM) was 48.3% and the “inhibition of the enzymatic activity of T315I mutant of ABL1” value (ABL1 mutant (T315I)) was “retains its capacity to inhibit”. For the same compound, the solubility in water [5] was 0.08 μg/mL and 0.18 µM and the “predicted Octanol-Water Partition Coefficient (LogP)” value [6] was 9.01.
Compound `COc1cccc2c1C(=O)c1c(O)c3c(c(O)c1C2=O)C[C@@](O)(C(=O)CO)C[C@@H]3O[C@H]1C[C@H](N)[C@H](O)[C@H](C)O1` [Doxorubicin, reference compound] has an IC50 [1] of 590 nM.
In the case of `Cc1ccc(NC(=O)c2ccc(CN3CCN(C)CC3)cc2)cc1Nc1nccc(-c2cccnc2)n1` [imatinib mesylate, reference compound], the “%pERK/Tubulin” value ([4]; 20 µM) is reported as 1.5%.
